Experimental data taken from ChEMBL document CHEMBL3507680, “University of Dundee, Gates Library screen for HepG2 cell viability”.

assay: Human HepG2 cell viability assay in 384 well format; assay type: toxicity, cell-based; parameters: dose 125 nL, time 70.5 hour; cytotoxicity at 70.5 h: concentration not given beside the values; conditions: HepG2 cells, read-out: Inhibition

| Compound | cytotoxicity at 70.5 h [%] |
| --- | --- |
| OC1CCN(Cc2c(C3CCCNC3)[nH]c3ncccc23)CC1 (stereo not given) | -22.4 |
| COc1ccccc1CNC(=O)CS(=O)(=O)Cc1ccccc1 | -3.93 |
| Cn1cc(C2CCCN2CCc2nc3ccccc3c(=O)[nH]2)cn1 (stereo not given) | -2.12 |
| CCCN1CCCC1Cn1nc(C)cc1C (stereo not given) | -3.07 |
| COCCN1C(=O)[C@H]2CC[C@@H]1CN(Cc1nnc(C3CC3)o1)C2 | 19.1 |
| N#Cc1c(F)cccc1N1CCN(S(=O)(=O)c2cccs2)CC1 | 8.47 |
| CCOC(=O)c1n[nH]cc1CN1CCCC(N(C)Cc2ccccc2)C1 (stereo not given) | 2.53 |
| Cc1cc(C)cc(C(C)NCc2nnc(C)s2)c1 (stereo not given) | -12 |
| CN(C)C(=O)N1CC2(CCN(S(=O)(=O)C3CC3)CC2)c2ccccc21 | 0.848 |
| CN1CC(=O)N(C2CCCNC2)Cc2c(NC3CCC3)ncnc21 (stereo not given) | -3.06 |
| CCc1cnc(N2CC[C@@H]3CN(C(C)=O)CCO[C@@H]3C2)nc1 | -2.86 |
| Nc1nc2c(c(N3CCOCC3)n1)CCN(C(=O)c1ccc[nH]1)CC2 | -7.85 |
| CC(C)=CCN1C[C@H]2CC[C@@H]1CN(C(=O)CCc1n[nH]c(C)n1)C2 | -1.3 |
| CN(C(=O)COC1CCCC1)C1CCN(CC2CCOC2)CC1 (stereo not given) | -11.5 |
| Cc1nccn1[C@@H]1CC[C@@H](NC(=O)CCCn2cncn2)[C@H]1O | 16.1 |
| COCCN1C[C@H](NC(=O)CCC(F)(F)F)[C@@H](C(C)C)C1 | -2.58 |
| Cn1nc(C2CCCN(Cc3cc(F)ccc3F)C2)c2nccnc21 (stereo not given) | -2.84 |
| COc1cccc(-c2c[nH]c(C)n2)c1F | -11.2 |
| COc1cccc(COCC(=O)N2CCCC(c3cc(C)[nH]n3)C2)c1 (stereo not given) | -14.7 |
| CNC(=O)[C@@]12CCO[C@@H]1CCN(S(=O)(=O)c1cccc(F)c1)C2 | -10.2 |
| CC(C)CNC(=O)c1nc2c(s1)CCN(C(=O)c1cccnc1)CC2 | -4.69 |
| CC(C)N1CCC(CC(=O)N2CCN(Cc3nccn3C)CC2)CC1 | -6.78 |
| CC(C)c1cnc(CN2CCCC(c3cc(C(N)=O)[nH]n3)C2)o1 (stereo not given) | 2.28 |
| CC(=O)N1CCN(CCNS(=O)(=O)c2ccc(C)c(F)c2)CC1 | 28.3 |
| COCCNc1c(-c2ccc(Cl)cc2)c(=O)c1=O | -7.26 |
| CC(C)(C)CC(=O)NCC(=O)Nc1ccn(Cc2cccnc2)n1 | 3.55 |
| Cc1nc(C2CCNCC2)cc(N(C)CCc2cn[nH]c2)n1 | -3.08 |
| CC(C)Cc1ncc2c(n1)CN(c1nccc(NC(C)C)n1)C2 | 2.52 |

| Compound | cytotoxicity at 70.5 h [%] |
| --- | --- |
| CCCS(=O)(=O)CCN1CCOC(c2ccsc2)C1 (stereo not given) | -2.47 |
| Cc1ccsc1CN(Cc1ccccn1)CC(O)CO (stereo not given) | -1.67 |
| COc1cc(N2C[C@@H]3COC[C@]3(C(=O)NCc3ccccn3)C2)ncn1 | -3.03 |
| CC1CN(CC2CCCC2)CCN1c1ccc2nncn2n1 (stereo not given) | 4.49 |
| Cc1nccc(CNC(=O)N2CCN(Cc3ccccc3)C[C@H]2C)n1 | -8.68 |
| CC(NC(=O)c1ccnc(C2CC2)n1)C1(N2CCOCC2)CCCC1 (stereo not given) | -4.36 |
| COCCN1CCC2(CC1)CN(C(=O)N(C)C)c1ccc(C)cc12 | 3.45 |
| CC(C)CCN1N=C(C(=O)N2CCCCCC2)S(=O)(=O)c2ccccc21 | 21.7 |
| CC(=O)N(c1ccc(C)cc1)c1nc(CN2CCCCC2C)cs1 (stereo not given) | 16.8 |
| COCC(=O)NCC1Cn2nnc(-c3ccncc3)c2CO1 (stereo not given) | -3.5 |
| O=C1CCc2cc(-c3csc(CCN4CCOC4=O)n3)c(F)cc2N1 | 24.3 |
| CCNC(=O)[C@H]1CN(Cc2ccccc2)C[C@@H]1C(=O)c1ccccc1 | -12.3 |
| O=C(c1nc(Cc2c[nH]c3ccccc23)no1)N1CCCC1 | -3.26 |
| CN(C)Cc1ccnc(C2CCCN2Cc2cc[nH]n2)n1 (stereo not given) | -1.65 |
| Cc1cncc(C2CCN(Cc3ccc(S(C)(=O)=O)cc3)CC2)n1 | -9.92 |
| Cc1cnn(CC2CCCN2C(=O)c2ccc(F)cc2Cl)c1 (stereo not given) | 0.634 |
| O=C(O)c1cccc(CC2CCN(c3ncc(F)cn3)CC2)c1 | -9.85 |
| CCc1noc(CC)c1CC(=O)N1CCN(C(C#N)C(C)C)CC1 (stereo not given) | -8.63 |
| COC(=O)C1CN(CC(=O)Nc2cccc(OC)c2)c2ccccc21 (stereo not given) | -9.39 |
| COC(=O)C(O)C1CCN(Cc2cccc(-n3cccn3)c2)CC1 (stereo not given) | -1.06 |
| Cc1ccc(-c2nnc(CN3CCn4c(nnc4C4CC4)C3)o2)cc1 | -8.76 |
| Cc1c(C(C)NC2CCOCC2)cnn1-c1ccc(F)cc1F (stereo not given) | 9.85 |
| COc1cc(CNc2ccc(Cl)cc2)ccc1OCC(=O)O | -19.8 |
| CN(Cc1cccc(OC(F)(F)F)c1)C(=O)Cc1ccon1 | -13.6 |
| Cn1ccc(C(=O)NC2CCC23CCN(C(=O)C2CCOCC2)CC3)c1 (stereo not given) | -4.15 |
| Cc1ccc(Oc2ncccc2CNS(=O)(=O)N2CCOCC2)cn1 | -4.6 |
| COc1ccc(CCN2CCCC(CN(C)Cc3[nH]cnc3C)C2)cc1 (stereo not given) | 1.62 |
